Measured values published in US5545639A, “Method of inhibiting transformed cells” (The United States of America as represented by the …, priority 1994, dated 1996).

Key:
[1] = mouse
NCI-H226 = experiment: Dose response of growth, tumor cell line; assay type: cell-based; conditions: Homo sapiens, NCI-H226, non-small cell lung cancer
Method: (§1) Indeed, 70% of the cell lines were shown not only to experience precluded growth, but cell death, when exposed to less then 100 μM of the active ingredient.

SF-539 = experiment: Dose response of growth, tumor cell line; assay type: cell-based; conditions: Homo sapiens, SF-539, CNS cancer
Method: as §1

DLD-A = experiment: Dose response of growth, tumor cell line; assay type: cell-based; conditions: Homo sapiens, colon cancer
Method: as §1

DMS 114 = experiment: Dose response of growth, tumor cell line; assay type: cell-based; conditions: Homo sapiens, DMS 114, small cell lung cancer
Method: as §1

RXF-393 = experiment: Dose response of growth, tumor cell line; assay type: cell-based; conditions: Homo sapiens, RXF-393, renal cancer
Method: as §1

NCI-H322M = experiment: Dose response of growth, tumor cell line; assay type: cell-based; conditions: Homo sapiens, non-small cell lung cancer
Method: as §1

HCC-2998 = experiment: Dose response of growth, tumor cell line; assay type: cell-based; conditions: Homo sapiens, HCC-2998, colon cancer
Method: as §1

KM12 = experiment: Dose response of growth, tumor cell line; assay type: cell-based; conditions: Homo sapiens, KM12, colon cancer
Method: as §1

KM20L2 = experiment: Dose response of growth, tumor cell line; assay type: cell-based; conditions: Homo sapiens, KM-20L2, KM20L2, colon cancer
Method: as §1

NCI-H23 = experiment: Dose response of growth, tumor cell line; assay type: cell-based; conditions: Homo sapiens, NCI-H23, non-small cell lung cancer
Method: as §1

CCRF-CEM = experiment: Dose response of growth, tumor cell line; assay type: cell-based; conditions: Homo sapiens, leukemia
Method: as §1

SK-MEL-5 = experiment: Dose response of growth, tumor cell line; assay type: cell-based; conditions: Homo sapiens, SK-MEL-5, melanoma
Method: as §1

OVCAR-3 = experiment: Dose response of growth, tumor cell line; assay type: cell-based; conditions: Homo sapiens, OVCAR-3, ovarian cancer
Method: as §1

MCF7 = experiment: Dose response of growth, tumor cell line; assay type: cell-based; conditions: Homo sapiens, MCF7, miscellaneous
Method: as §1

SK-OV-3 = experiment: Dose response of growth, tumor cell line; assay type: cell-based; conditions: Homo sapiens, SK-OV-3, ovarian cancer
Method: as §1

A549/ATCC = experiment: Dose response of growth, tumor cell line; assay type: cell-based; conditions: Homo sapiens, non-small cell lung cancer
Method: as §1

HCT-15 = experiment: Dose response of growth, tumor cell line; assay type: cell-based; conditions: Homo sapiens, HCT-15, colon cancer
Method: as §1

HT29 = experiment: Dose response of growth, tumor cell line; assay type: cell-based; conditions: Homo sapiens, HT-29, HT29, colon cancer
Method: as §1

L1210 mouse cells = experiment: Example 3: growth of L1210 mouse cells with bis(halomethyl)phenanthrolines plus copper, with or without BCS; assay type: cell-based; conditions: at highest concentration tested (3 μM); copper 10 μM, BCS 100 μM
Method: Bis(halomethyl)phenanthroline compounds were synthesized according to the method of Newkome et al., J. Org. Chem., 48, 5112-5114 (1983). Such compounds, namely, 2,9-bis(bromomethyl)phenanthroline and 2,9-bis(chloromethyl)phenanthroline, were added in the presence of copper, but with or without BCS (the copper chelator shown in Examples 1 and 2 to reduce inhibitory activity), to the culture media of L1210 mouse cells, using the same methods of Examples 1 and 2. The concentrations of copper and BCS used in these experiments were 10 μM and 100 μM, respectively. The growth of the cells as a percent of control were determined, and the results plotted in the graph of FIG. 3, wherein open squares (.quadrature.) represent the compound plus copper chelate and solid squares (.box-solid.) represent the compound together with both copper and BCS addition to the culture medium.

DMS 273 = experiment: Dose response of growth, tumor cell line; assay type: cell-based; conditions: Homo sapiens, DMS 273, small cell lung cancer
P388 = experiment: Dose response of growth, tumor cell line; assay type: cell-based, murine; conditions: P388, miscellaneous
Method: as §1

P388/ADR = experiment: Dose response of growth, tumor cell line; assay type: cell-based, murine; conditions: miscellaneous
Method: as §1

[2] = read-out: 50% Growth (Relative to Control)
[3] = read-out: No Growth (Relative to Control)
[4] = Mus musculus, read-out: 50% Growth (Relative to Control)
[5] = Mus musculus, read-out: No Growth (Relative to Control)

ClCc1ccc2ccc3ccc(CCl)nc3c2n1 [2,9-bis(chloromethyl)-1,10-phenanthroline]
tolerated in vivo concentration relative to 100 μM in vitro [1]: at least 8.5 times | toxicity in an animal ([1]; in vivo, 250 mg/kg): not toxic | tolerability in mammals compared with the brominated derivative ([1]; in vivo, ip): better tolerated | IC50 (NCI-H226; [2]): 3.06 µM | CC50 (NCI-H226; read-out: 50% Loss (50% kill)): 68.3 µM | IC100 (NCI-H226; [3]): 9.91 µM | IC50 (SF-539; [2]): 2.99 µM | CC50 (SF-539; read-out: 50% Loss (50% kill)): 41.8 µM | IC100 (SF-539; [3]): 11.2 µM | IC50 (DLD-A; [2]): 1.48 µM | CC50 (DLD-A; read-out: 50% Loss (50% kill)): 5.72 µM | IC100 (DLD-A; [3]): 2.91 µM | IC50 (DMS 114; [2]): 1.62 µM | IC100 (DMS 114; [3]): 3.53 µM | IC50 (RXF-393; [2]): 1.65 µM | CC50 (RXF-393; read-out: 50% Loss (50% kill)): 6.03 µM | IC100 (RXF-393; [3]): 3.16 µM | IC50 (NCI-H322M; [2]): 2.84 µM | CC50 (NCI-H322M; read-out: 50% Loss (50% kill)): 29.2 µM | IC100 (NCI-H322M; [3]): 8.41 µM | IC50 (HCC-2998; [2]): 1.56 µM | CC50 (HCC-2998; read-out: 50% Loss (50% kill)): 6.18 µM | IC100 (HCC-2998; [3]): 3.11 µM | IC50 (KM12; [2]): 0.761 µM | CC50 (KM12; read-out: 50% Loss (50% kill)): 6.43 µM | IC100 (KM12; [3]): 2.39 µM | IC50 (KM20L2; [2]): 2.72 µM | CC50 (KM20L2; read-out: 50% Loss (50% kill)): 28.3 µM | IC100 (KM20L2; [3]): 7.21 µM | IC50 (NCI-H23; [2]): 1.87 µM | CC50 (NCI-H23; read-out: 50% Loss (50% kill)): 7.24 µM | IC100 (NCI-H23; [3]): 3.68 µM | IC50 (CCRF-CEM; [2]): 1.8 µM | CC50 (CCRF-CEM; read-out: 50% Loss (50% kill)): > 100 µM | IC100 (CCRF-CEM; [3]): 8.64 µM | IC50 (SK-MEL-5; [2]): 1.59 µM | CC50 (SK-MEL-5; read-out: 50% Loss (50% kill)): 9.45 µM | IC100 (SK-MEL-5; [3]): 3.88 µM | IC50 (OVCAR-3; [2]): 1.75 µM | CC50 (OVCAR-3; read-out: 50% Loss (50% kill)): 18.4 µM | IC100 (OVCAR-3; [3]): 4.93 µM | IC50 (MCF7; [2]): 0.564 µM | CC50 (MCF7; read-out: 50% Loss (50% kill)): 8.88 µM | IC100 (MCF7; [3]): 2.48 µM | IC50 (SK-OV-3; [2]): 8.9 µM | CC50 (SK-OV-3; read-out: 50% Loss (50% kill)): > 10 µM | IC100 (SK-OV-3; [3]): > 10 µM | IC50 (A549/ATCC; [2]): 5.14 µM | CC50 (A549/ATCC; read-out: 50% Loss (50% kill)): > 100 µM | IC100 (A549/ATCC; [3]): > 100 µM | IC50 (HCT-15; [2]): 1.95 µM | CC50 (HCT-15; read-out: 50% Loss (50% kill)): > 100 µM | IC100 (HCT-15; [3]): 6.47 µM | IC50 (HT29; [2]): 1.31 µM | CC50 (HT29; read-out: 50% Loss (50% kill)): 5.48 µM | IC100 (HT29; [3]): 2.68 µM | difference between the copper-chelated and the unchelated derivative (L1210 mouse cells): 10% | IC50 (DMS 273; [2]): 2.84 µM | IC100 (DMS 273; [3]): > 100 µM | IC50 (P388; [4]): 0.735 µM | IC100 (P388; [5]): 3.01 µM | CC50 (P388; read-out: 50% Loss (50% kill)): 25.1 µM | IC50 (P388/ADR; [4]): 0.355 µM | IC100 (P388/ADR; [5]): 3.82 µM | CC50 (P388/ADR; read-out: 50% Loss (50% kill)): > 100 µM
